Experimental data reported in patent US8378100B2, “Phosphonate derivatives as autotaxin inhibitors” (University of Virginia Patent Foundation, priority 2008, dated 2013).

Target: recombinant human ATX (Homo sapiens, UniProt Q13822)
Assay: Choline detection assay for ATX
Format: biochemical
Conditions: table of g1-g15 (β-keto phosphonates), activity without test compound = 100%; for ATX activity (%) 1 μM: 1 μM test compound; for ATX activity (%) 10 μM: 10 μM test compound; for ATX activity (%) 100 μM: 100 μM test compound
Description: The phosphonate derivatives were tested in choline detection assay for ATX inhibition. The ATX activity assay was conducted in 0.1 ml, buffer: (in mM: Tris-HCl 100, pH9, NaCl 150, MgCl2 5, CoSO4 0.03, 0.05% Triton X-100), 1 mM 18:1 LPC, using recombinant human ATX with or without test compounds; incubation was for 16 hours at 37° C. The released choline was detected as follows: Samples were mixed with 0.15 ml of 50 mM TrisHCl containing 2.7 mM TOOS(N-ethyl-N-2-hydroxy-3-sulfopropyl)-m-toluidine, 2.7 mM 4-AAP (4-aminoantipyrine), 47.7 U/ml horseradish peroxidase, 18 U/ml choline oxidase, and 5 mM MgCl2. After 30 min incubation at 37° C., light absorbance (550 nm) was determined, and the amount of choline release was calculated from a standard curve.
The ATX activity was measured in the presence of the test compounds under different concentrations (100 μM, 10 μM and 1 μM). The ATX activity without TEST compounds was used as the standard (100% activity). Some β-hydroxy phosphonate derivatives inhibited ATX activity at only the highest concentration tested. […] These two compounds were synthesized from protected L-tyrosine and they are diastereomers. The less polar isomer, f17, (also known as VPC8a202) was able to inhibit 73% of ATX activity at 1 μM.

Row | SMILES | ATX activity (%) 1 μM [%] | ATX activity (%) 10 μM [%] | ATX activity (%) 100 μM [%]
1 | CCCCCCCCCCCCCCCC(=O)N[C@H](Cc1ccc(OCCC)cc1)C(=O)CP(=O)(O)O [g10] | 104 | 97 | 75
2 | CCCCCCCCCCCCCCCC(=O)N[C@@H](Cc1ccc(OCCC)cc1)C(=O)CP(=O)(O)O [g11] | – | 97 | 72
3 | CCCCCCCCCCCCCCCC(=O)N[C@H](Cc1ccc(OCCCCC)cc1)C(=O)CP(=O)(O)O [g12] | 93 | 84 | –
4 | CCCCCCCCCCCCCCCC(=O)N[C@@H](Cc1ccc(OCCCCC)cc1)C(=O)CP(=O)(O)O [g13] | 95 | 83 | –
